Measurements from patent publication US7462598B2, “Antimicrobial theta defensins, analogs thereof, and methods of use” (priority 2002, dated 2008).
Bridge positions count the residues as written; N and C are the ends. Peptide text beside a SMILES is read from it.

Assays:
C. albicans 16820 = experiment: Cell-suspension microbicidal assay (MMC); type: cell-based, Candida albicans; settings: for MMC, C. albicans: lowest concentration that reduced cell viability by 99.9%, 10 mM PIPES, 5 mM glucose, pH 7.4, 2 h 37° C.
Experimental: (§1) To test microbicidal activities, the activities of each peptide against S. aureus 502a, E. coli ML35, and C. albicans 16820 were assessed essentially as described in Example I with modifications to allow for simultaneous analysis of all twenty peptides. Briefly, two-fold serial dilutions of each peptide (in 0.01% acetic acid 0.062-8.0 μg/ml final concentrations) were mixed with 10 mM PIPES, pH 7.4, containing 5 mM glucose in sterile polystyrene 96-well plates (Corning, N.Y.). Aliquots of log-phase bacteria or yeast were added to a 2×10^6 CFU/ml final density as determined by A620. After 2 h incubation at 37° C., 15 μl of the incubation mixture was removed and serially diluted ten-fold from 1:10 to 1:10^6 in trypticase soy broth (bacteria) or Sabaraud dextrose broth (C. albicans). The diluted cell suspensions were grown 24-48 h at 37° C. until cell pellets were visible. Microbicidal activity was determined as absence of growth and was correlated to CFU/ml in control experiments where activity was determined in parallel by colony counting (see Example I). Absence of growth at the 1:10^3 dilution is equivalent to a 3-log reduction in microbial viability.
(§2) The microbicidal activities of each peptide against E. coli ML35, S. aureus 502a, and C. albicans 16820 were determined with cell-suspension microbicidal assays in 96-well plates (see Example II). Briefly, log-phase cells (2×10^6 CFU/ml final) were incubated with increasing concentrations of peptides (0-8 μg/ml final) in 50 μl of 10 mM PIPES, 5 mM glucose, pH 7.4, for 2 h at 37° C. Incubation mixtures were diluted 1:10 to 1:10^6 with trypticase-soy broth (bacteria) or Sabaraud dextrose broth (fungi) and incubated at 37° C. for 24-48 h until cell pellets were visible. Microbicidal activities (confirmed in control experiments as described in Example II) were determined as the absence of a cell pellet in the various dilutions. Peptide concentrations that caused ≧99.9% killing (absence of a cell pellet at 1:10^3 dilution) were taken as the minimum microbicidal concentrations (MMC).

S. aureus 502a [1] = type: cell-based, Staphylococcus aureus; settings: 10% normal human serum; FIG. 7
Experimental: Dose-dependent staphylocidal activity of each peptide was determined in assays containing 10% normal human serum. Percentages of killing are relative to activities of peptide-containing incubations in which serum was omitted.
To determine the effects of serum, salt, calcium chloride and magnesium chloride on microbicidal activities, peptide activities were determined in assays containing varying ionic strength, divalent cations, and serum. The effect of serum on staphylocidal activity of each peptide was determined by incubating 1×10^6 CFU/ml of S. aureus 502a with increasing peptide concentrations (0.5-4 μg/ml) in 10 mM PIPES, pH 7.4, containing 10% normal human serum for 2 h at 37° C. The effect of sodium chloride on staphylocidal activities was assessed with 5 μg/ml of each peptide in 10 mM PIPES, pH 7.4, containing varying concentrations of sodium chloride (0-160 mM). Effects of divalent cations, CaCl2, or MgCl2 (0-5.6 mM) were assessed in microbicidal assays against E. coli ML35. Bactericidal activities were determined by colony counting (see Example II), and microbicidal potencies were expressed as percent killing as follows:
[formula] where A=surviving bacteria (CFU/ml) after initial incubation with each peptide in buffer containing serum, salt, or divalent cations and Ao=bacterial CFU/ml in the “no-peptide” controls.

[2] = test system: S. aureus 502a, E. coli ML35, and C. albicans 16820; experiment: Cell-suspension microbicidal assay, statements across the test organisms (lowest MMC, overall ranges); type: cell-based; settings: peptide concentration that kill 99.9% of either S. aureus, E. coli, or C. albicans; lowest MMC value
Experimental: as §1, §2
(§3) A selectivity index (SI=H/M) was calculated as a ratio of a peptide concentration (μg/ml) that causes 3% hemolysis (H) obtained from a dose-dependent hemolysis plot over 0.3 to 3 μg/ml of each peptide in PBS and the lowest MMC value (M) for any of the three test microorganisms (see Example II; Table 2).

E. coli ML35 [3] = experiment: Membrane permeabilization assay (ONPG hydrolysis); type: cell-based, Escherichia coli; settings: rates at 1 μg/ml concentration of each peptide
Experimental: For the membrane permeabilization assay, the permeabilization of bacterial cytoplasmic membranes was determined by measuring hydrolysis of o-nitrophenyl-β-D-galactcpyranoside (ONPG) in E. coli ML35 (Sitaram et al., FEBS Lett. 303:265-268 (1992); Lehrer et al.,. J. Immunol. Methods 108:153-158 (1988)). Peptides dissolved in 5 μl of 0.01% acetic acid were two-fold serially diluted with 10 mM PIPES, pH 7.4, containing 3 mM ONPG, to final peptide concentrations of 0-8.0 μg/ml. Log-phase bacteria, prepared in PIPES buffer as described for the microbicidal assay (see Example I), were added to 1×10^6 CFU/ml final density in a final volume of 90 μl. ONPG hydrolysis was measured at 405 nm for 60 min using a SpectraMAX 190 plate reader and SOFTmaxPRO 3.1 (Molecular Devices Corp., CA). […]

S. aureus 502a [4] = experiment: Cell-suspension microbicidal assay (MMC); type: cell-based, Staphylococcus aureus; settings: for MMC, S. aureus: lowest concentration that reduced cell viability by 99.9%, 10 mM PIPES, 5 mM glucose, pH 7.4, 2 h 37° C.
Experimental: as §1, §2

E. coli ML35 [5] = experiment: Cell-suspension microbicidal assay (MMC); type: cell-based, Escherichia coli; settings: lowest concentration that reduced cell viability by 99.9%; 10 mM PIPES, 5 mM glucose, pH 7.4; 2 h 37° C.
Experimental: as §1, §2

white blood cells = experiment: Cytokine-antibody array of supernatants of white blood cells (ex vivo LPS model); type: cell-based; settings: 18 h, relative to control supernatants
Experimental: The anti-inflammatory properties of RTD-1 were evaluated by determining the relative levels of cytokines produced by stimulated white blood cells. Blood was obtained from healthy donors in accordance with institutional guidelines. Serum was prepared from the same donor following coagulation and high-speed centrifugation (12,000-15,000 ×g). White blood cells, (WBC) were prepared from EDTA anti-coagulated blood using an established protocol. WBC were suspended in RPMI 1640 (Gibco; Invitrogen, Carlsbad Calif.) containing 10% FBS and 1% autologous serum. Aliquots containing 2×10^6 cells were added to each well of a sterile 12-well plate, and cells were allowed to incubate for 18 h at 37° C. in a humidified incubator with 5% carbon dioxide. […] Cell-free supernatants were collected by centrifugation at 12,000×g and incubated with cytokine-antibody arrays per the manufacturer's protocol (RayBiotech; Norcross Ga.). The cytokines on each array were visualized with a chemi-luminescent kit (Pierce; Rockford Ill.) and enumerated by spot density analysis with ChemiImager 5.5 (Alpha Innotech; San Leandro Calif.).

human erythrocytes = experiment: Hemolysis assay; type: cell-based
Experimental: For the hemolysis assay, the hemolytic activity of each peptide was determined by the method of Tam et al. (Tam et al., Eur. J. Biochem. 267:3289-3300 (2000)). Blood was obtained from a healthy donor in accordance to a protocol approved by the Institutional Review Board. Normal human serum was prepared from the same individual and stored at −20° C. Red blood cells (RBC) were prepared from blood collected in EDTA. RBC were harvested at 234×g for 10 min, 22° C., washed four times with 10 mM sodium phosphate, 150 mM NaCl, pH 7.4 (PBS), containing 4 mM EDTA and resuspended in PBS without EDTA. Peptides dissolved in 10 μl 0.01% HOAc were diluted with PBS to final concentrations of 0.3-100 μg/ml. RBC were added to a 2% final density in 100 μl. Incubation mixtures were also prepared with 10% serum. After 1 h incubation at 37° C., the cell suspensions were centrifuged at 234×g for 10 min, 22° C. Fifty-μl samples of the supernatants were removed, and the absorbance at 405 nm (A) was measured. Hemolytic activity of each peptide was calculated relative to lysis by 1% NP-40 using the following formula:
as §3

[6] = LPS (100 ng/ml) + RTD-1 (100 ng/ml)

For CC(C)C[C@H](NC(=O)[C@H](CCCNC(=N)N)NC(=O)CNC(=O)CNC(=O)[C@@H](N)CCCNC(=N)N)C(=O)N[C@H]1CSSC[C@@H](C(=O)N[C@H](C(=O)NCC(=O)N[C@@H](CCCNC(=N)N)C(N)=O)C(C)C)NC(=O)[C@H](C(C)C)NC(=O)[C@@H]2CSSC[C@H](NC(=O)[C@H](Cc3ccc(O)cc3)NC1=O)C(=O)N[C@@H](CCCNC(=N)N)C(=O)N[C@@H](CCCNC(=N)N)C(=O)N[C@@H](CCCNC(=N)N)C(=O)N[C@@H](Cc1ccccc1)C(=O)N2 [PG-1, reference compound], the “MMC, C. albicans” value (C. albicans 16820) was 0.8 µg/mL, the “staphylocidal activity in assay containing serum (in words)” value (S. aureus 502a [1]) was “unaffected” and the M [2] was 0.38 µg/mL. For the same molecule, the ONPG hydrolysis (E. coli ML35 [3]) was 11.3 (A405/sec) · 10^−5 and the “MMC, S. aureus” value (S. aureus 502a [4]) was 0.4 µg/mL.

With CC[C@H](C)[C@@H]1NC(=O)[C@@H]2CSSC[C@H](NC(=O)[C@H](CCCNC(=N)N)NC(=O)[C@@H]3CSSC[C@H](NC1=O)C(=O)N[C@@H]([C@@H](C)O)C(=O)N[C@@H](CCCNC(=N)N)C(=O)NCC(=O)N[C@@H](Cc1ccccc1)C(=O)N3)C(=O)N[C@@H](CC(C)C)C(=O)N[C@H]1CSSC[C@H](NC(=O)[C@H](C(C)C)NC(=O)CNC(=O)[C@H](CCCNC(=N)N)NC(=O)[C@H](CCCNC(=N)N)NC1=O)C(=O)N[C@@H](CCCNC(=N)N)C(=O)N2 [RTD-1] (cyclo(GFCRCLCRRGVCRCICTR); disulfide 3-16, 5-14, 7-12) the “MMC, C. albicans” value (C. albicans 16820) was 1.0 µg/mL, the “MMC, E. coli” value (E. coli ML35 [5]) was 2.0 µg/mL and the ENA-78 fold increase (white blood cells; [6]) was 10 fold. For the same molecule, the GCSF fold increase (white blood cells; [6]) was 1 fold, the GM-CSF fold increase (white blood cells; [6]) was 1 fold and the GRO fold increase (white blood cells; [6]) was 19 fold. The IFN-γ fold increase (white blood cells; [6]) was 60 fold, the IL-1β fold increase (white blood cells; [6]) was 118 fold and the IL-2 fold increase (white blood cells; [6]) was 1 fold. The IL-5 fold increase (white blood cells; [6]) was 118 fold, the IL-6 fold increase (white blood cells; [6]) was 2 fold and the IL-7 fold increase (white blood cells; [6]) was 1 fold. For the same molecule, the IL-10 fold increase (white blood cells; [6]) was 2 fold, the MCP-2 fold increase (white blood cells; [6]) was 4 fold and the MCSF fold increase (white blood cells; [6]) was 1 fold. For the same molecule, the MDC fold increase (white blood cells; [6]) was 4 fold, the MIP-1-δ fold increase (white blood cells; [6]) was 1 fold and the RANTES fold increase (white blood cells; [6]) was 237 fold. For the same molecule, the SCF fold increase (white blood cells; [6]) was 1 fold, the SDF-1 fold increase (white blood cells; [6]) was 178 fold and the TARC fold increase (white blood cells; [6]) was 60 fold. The TGF-β1 fold increase (white blood cells; [6]) was 1 fold, the TNF-α fold increase (white blood cells; [6]) was 1 fold and the ENA-78 fold increase (white blood cells; stimulus alone, 100 ng/ml) was 1 fold. For the same molecule, the GCSF fold increase (white blood cells; stimulus alone, 100 ng/ml) was 1 fold, the GM-CSF fold increase (white blood cells; stimulus alone, 100 ng/ml) was 1 fold and the GRO fold increase (white blood cells; stimulus alone, 100 ng/ml) was 4 fold. The IFN-γ fold increase (white blood cells; stimulus alone, 100 ng/ml) was 1 fold, the IL-1β fold increase (white blood cells; stimulus alone, 100 ng/ml) was 178 fold and the IL-2 fold increase (white blood cells; stimulus alone, 100 ng/ml) was 1 fold. The IL-5 fold increase (white blood cells; stimulus alone, 100 ng/ml) was 60 fold, the IL-6 fold increase (white blood cells; stimulus alone, 100 ng/ml) was 2 fold and the IL-7 fold increase (white blood cells; stimulus alone, 100 ng/ml) was 1 fold. For the same molecule, the IL-10 fold increase (white blood cells; stimulus alone, 100 ng/ml) was 1 fold, the MCP-2 fold increase (white blood cells; stimulus alone, 100 ng/ml) was 2 fold and the MCSF fold increase (white blood cells; stimulus alone, 100 ng/ml) was 60 fold. For the same molecule, the MDC fold increase (white blood cells; stimulus alone, 100 ng/ml) was 2 fold, the MIP-1-δ fold increase (white blood cells; stimulus alone, 100 ng/ml) was 1 fold and the RANTES fold increase (white blood cells; stimulus alone, 100 ng/ml) was 1 fold. The SCF fold increase (white blood cells; stimulus alone, 100 ng/ml) was 1 fold, the SDF-1 fold increase (white blood cells; stimulus alone, 100 ng/ml) was 1 fold and the TARC fold increase (white blood cells; stimulus alone, 100 ng/ml) was 1 fold. The TGF-β1 fold increase (white blood cells; stimulus alone, 100 ng/ml) was 1 fold, the TNF-α fold increase (white blood cells; stimulus alone, 100 ng/ml) was 1 fold and the H (human erythrocytes; peptide concentration that causes 3% hemolysis, calculated from dose-dependent hemolysis plot over 0.3-3 μg/ml in PBS) was 5.5 µg/mL. For the same molecule, the M [2] was 1 µg/mL, the ONPG hydrolysis (E. coli ML35 [3]) was 9.0 (A405/sec) · 10^−5 and the “MMC, S. aureus” value (S. aureus 502a [4]) was 1.0 µg/mL.

CC(C)C[C@@H]1NC(=O)[C@H](CCCNC(=N)N)NC(=O)CNC(=O)CNC(=O)[C@H](CCCNC(=N)N)NC(=O)[C@H](CCCNC(=N)N)NC(=O)CNC(=O)[C@H](C(C)C)NC(=O)[C@@H]2CSSC[C@H](NC1=O)C(=O)N[C@@H](Cc1ccc(O)cc1)C(=O)N[C@H]1CSSC[C@H](NC(=O)[C@H](Cc3ccccc3)NC(=O)[C@H](CCCNC(=N)N)NC(=O)[C@H](CCCNC(=N)N)NC(=O)[C@H](CCCNC(=N)N)NC1=O)C(=O)N[C@@H](C(C)C)C(=O)N2 [cPG-1] (cyclo(GGRLCYCRRRFCVCVGRR); disulfide 5-14, 7-12) was tested, and the “fold lower candidacidal potency than native PG-1” value (C. albicans 16820; from MMC, Table 2) was 3 fold, the “MMC, C. albicans” value (C. albicans 16820) was 2.5 µg/mL and the “MMC, E. coli” value (E. coli ML35 [5]) was 1.0 µg/mL. The hemolysis (human erythrocytes) was 40-50%, the M [2] was 1 µg/mL and the ONPG hydrolysis (E. coli ML35 [3]) was 11.0 (A405/sec) · 10^−5. The “fold lower staphylocidal potency than native PG-1” value (S. aureus 502a [4]; from MMC, Table 2) was 5 fold and the “MMC, S. aureus” value (S. aureus 502a [4]) was 2.0 µg/mL.
